In the supplement of paper PMC10307832:

Key:
Test in all cases: relative viability (nuclei count vs DMSO), 5 days (fraction); higher = more cells survive
[1] = compound: CC(C)N(CCCNC(=O)Nc1ccc(C(C)(C)C)cc1)C[C@H]1O[C@@H](n2ccc3c(N)ncnc32)[C@H](O)[C@@H]1O + Nc1ncn([C@H]2C[C@H](O)[C@@H](CO)O2)c(=O)n1 [Decitabine] (partner 2 µM)
How it was run: (§1)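 Values are medians from duplicate plates. Each reflects relative viability, defined as the nuclei count of treated wells over that of vehicle wells. Lung cancer cell lines in 1536-well plates were pin-tool dosed one day after seeding with one drug alone or with a fixed anchor-drug dose plus five library-drug doses (not always all listed) in √10 steps, then fixed, stained and imaged at 4× after 5 days.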

Shikonin + Lapatinib = compound: CC(C)=CC[C@@H](O)C1=CC(=O)c2c(O)ccc(O)c2C1=O [Shikonin] + CS(=O)(=O)CCNCc1ccc(-c2ccc3ncnc(Nc4ccc(OCc5cccc(F)c5)c(Cl)c4)c3c2)o1 [Lapatinib] (partner 2 µM)
How it was run: as §1

[2] = compound: CC(C)N(CCCNC(=O)Nc1ccc(C(C)(C)C)cc1)C[C@H]1O[C@@H](n2ccc3c(N)ncnc32)[C@H](O)[C@@H]1O + Cc1cc(Nc2cc(N3CCN(C)CC3)nc(Sc3ccc(NC(=O)C4CC4)cc3)n2)n[nH]1 [Tozasertib] (partner 0.1 µM)
How it was run: as §1

Shikonin + Olaparib = compound: CC(C)=CC[C@@H](O)C1=CC(=O)c2c(O)ccc(O)c2C1=O [Shikonin] + O=C(c1cc(Cc2n[nH]c(=O)c3ccccc23)ccc1F)N1CCN(C(=O)C2CC2)CC1 [Olaparib] (partner 8 µM)
How it was run: as §1

Cell Line	relative viability ([1]; first compound 0.08 µM)	relative viability ([1]; first compound 0.253 µM)	relative viability ([1]; first compound 0.8 µM)	relative viability ([1]; first compound 2.53 µM)	relative viability ([1]; first compound 8 µM)	relative viability (Shikonin + Lapatinib; first compound 0.01 µM)	relative viability (Shikonin + Lapatinib; first compound 0.1 µM)	relative viability (Shikonin + Lapatinib; first compound 0.3162 µM)	relative viability (Shikonin + Lapatinib; first compound 1 µM)	relative viability ([2]; first compound 0.08 µM)	relative viability ([2]; first compound 0.253 µM)	relative viability ([2]; first compound 2.53 µM)	relative viability ([2]; first compound 8 µM)	relative viability (Shikonin + Olaparib; first compound 0.01 µM)	relative viability (Shikonin + Olaparib; first compound 0.1 µM)	relative viability (Shikonin + Olaparib; first compound 0.3162 µM)	relative viability (Shikonin + Olaparib; first compound 1 µM)	relative viability ([2]; first compound 0.8 µM)
HCC-827	0.322	0.325	0.315	0.304	0.38	0.166	0.17	0.191	0.19	0.423	0.425	0.436	0.412	0.678	0.562	0.621	0.52	–
HOP-62	0.225	0.207	0.21	0.195	0.198	1.04	1.13	0.908	1.03	0.369	0.375	0.309	0.367	0.267	0.455	0.379	0.676	0.335
IA-LM	–	–	–	–	–	1.11	–	0.81	0.679	–	–	–	–	0.993	0.891	0.893	0.885	–
LC-2-ad	0.776	0.857	0.688	0.728	0.768	0.798	1.38	1.04	0.965	0.475	0.432	0.485	0.41	0.736	0.872	0.689	0.765	0.442
LCLC-97TM1	0.215	0.305	0.243	0.242	0.194	1.28	0.998	1.09	0.921	0.21	0.17	0.248	0.21	0.383	0.539	0.48	0.419	0.258
LCLC-103H	0.688	0.719	0.666	0.716	0.68	–	–	–	–	0.603	0.519	0.516	0.478	0.793	0.94	0.788	0.839	0.432
LK-2	0.308	0.293	0.388	0.325	0.22	1.26	1.06	1.22	1.06	0.159	0.178	0.195	0.17	0.744	0.887	0.75	0.753	0.204
LOU-NH91	0.757	0.815	–	0.858	0.793	0.802	0.839	0.811	0.823	0.635	0.662	0.682	0.607	0.926	0.937	0.984	0.896	0.314
LU99A	0.802	0.92	0.895	0.919	0.991	1.1	1.32	0.881	0.891	0.279	0.316	0.237	0.261	0.256	0.272	0.233	0.222	0.276
LXF-289	0.329	0.39	0.396	0.378	0.336	0.959	1	0.906	0.945	0.167	0.199	0.176	0.174	1.11	0.966	1.11	1.06	0.131
NCI-H23	0.311	–	0.327	0.298	0.331	1.2	1.14	1.13	1.03	0.41	0.378	0.355	0.546	0.36	0.248	0.317	0.313	0.281
NCI-H322M	0.698	0.695	0.723	0.689	0.641	0.582	0.595	0.585	0.566	0.484	0.434	0.499	0.499	0.806	0.757	0.671	0.88	0.493
NCI-H441	0.278	0.251	–	0.218	0.252	–	–	–	–	0.599	0.66	0.716	0.577	0.647	0.637	0.626	0.531	–
NCI-H522	0.64	0.737	0.71	0.729	0.696	–	–	–	–	0.538	0.553	0.588	0.615	0.645	0.614	0.597	0.491	0.542
NCI-H1299	–	–	–	–	–	1.01	1.09	0.986	0.936	–	–	–	–	0.969	0.986	0.976	0.832	–
NCI-H1563	–	–	–	–	–	0.87	1.08	0.923	0.779	–	–	–	–	–	–	–	–	–
NCI-H1623	–	–	–	–	–	–	–	–	–	0.426	0.452	0.408	0.45	–	–	–	–	0.414
NCI-H1648	0.494	0.464	0.446	0.398	0.548	–	–	–	–	0.445	0.425	0.387	0.495	0.846	–	1.08	0.816	0.534
NCI-H1703	–	–	–	–	–	1.15	1.33	1.15	0.647	–	–	–	–	0.42	0.47	0.395	0.241	–
NCI-H1792	0.527	–	0.56	0.529	0.607	0.922	1.06	0.968	1.09	–	–	–	–	0.263	0.314	0.463	0.427	–
NCI-H2228	–	–	–	–	–	0.913	0.902	0.921	0.83	0.261	0.314	0.277	0.23	0.987	0.808	0.681	0.272	0.264
NCI-H2342	0.667	0.649	0.655	0.815	0.713	–	–	–	–	0.57	0.559	0.472	0.56	0.43	0.392	0.38	0.383	0.415
SW 900	0.387	0.43	–	0.42	0.404	–	–	–	–	0.683	0.696	0.543	0.438	1.05	0.776	0.917	0.717	–
